{"source": "paper PMC10804612", "about": "“In vivo validation of psilacetin as a prodrug yielding modestly lower peripheral psilocin exposure than psilocybin” (Frontiers in Psychiatry, 2024)", "key": {"5-HT2A receptor": {"tested_on": "5-HT2A receptor", "design": "method as in PMID 36407948, PMID 33860183", "conditions": "in vitro; cited from earlier work"}, "head twitch responses": {"tested_on": "head twitch responses", "design": "method as in PMID 33860183", "conditions": "equimolar basis; cited from earlier work"}, "[1]": {"assay": "Plasma psilocin by LC-MS/MS after intraperitoneal psilocybin or psilacetin fumarate"}, "[2]": {"conditions": "cited from earlier work"}}, "data": [{"smiles": "CC(=O)Oc1cccc2[nH]cc(CCN(C)C)c12", "note": "[psilacetin, 4-acetoxy-N,N-dimethyltryptamine]", "values": [{"measurement": "receptor potency, fold lower than that of psilocin", "setting": "5-HT2A receptor", "value": "10- to 20 fold"}, {"measurement": "head twitch response potency", "setting": "head twitch responses", "value": 1.12, "unit": "µmol/kg"}]}, {"smiles": "CN(C)CCc1c[nH]c2cccc(O)c12", "note": "[psilocin]", "values": [{"measurement": "head twitch response potency", "setting": "head twitch responses", "value": 0.81, "unit": "µmol/kg"}, {"measurement": "k el", "setting": "[1]; both, C57Bl6/J, mouse, plasma, ip", "value": 0.000433, "unit": "s⁻¹"}, {"measurement": "half-life", "setting": "[1]; both, C57Bl6/J, mouse, plasma, ip, psilocin half-life (T1/2), plasma psilocin from psilocybin or psilacetin, mice", "value": "~30", "unit": "min"}, {"measurement": "plasma psilocin concentration by 4 h after administration", "setting": "[1]; lower limit of quantitation 0.1 ng/mL, approximately 6 half-lives", "value": "near or below the lower limit of quantitation"}, {"measurement": "psilocin half-life", "setting": "[1]; plasma psilocin, mice", "value": "approximately one-half"}, {"measurement": "terminal elimination rate of psilocin, range", "setting": "[1]; range across tested conditions", "value": "0.020–0.038 min^1"}]}, {"smiles": "CN(C)CCc1c[nH]c2cccc(OP(=O)(O)O)c12", "note": "[psilocybin]", "values": [{"measurement": "plasma concentrations in human pharmacokinetic studies", "setting": "[2]", "value": "5 to 50", "unit": "ng/mL"}]}]}
